# Experimental data from US9844546B2, “Antibody against human HIF hydroxylase” (OXFORD UNIVERSITY INNOVATION LIMITED, priority 2001, dated 2017).
# Assays:
# [1] = molecular target: T1, HIF-1α/pVHL interaction (Homo sapiens, UniProt P40337); experiment: Polypeptide blocking assay of HIF-1α and pVHL.HA IVTT mixture, anti-HA immunoprecipitation; format: binding
# T1 construct: made in house; host or cells: TNT rabbit reticulocyte lysate (Promega), in vitro transcription/translation
# Method: Further studies were performed using synthetic polypeptides as inhibitors of the HIF-1α/pVHL interaction (23). […] Results for a series of polypeptides derived from this domain are summarized in FIG. 1B and implicate a similar minimal interaction domain. […] This polypeptide comprises HIF-1α polypeptide residues 556 to 574 and its ability to block binding following exposure to a variety of direct oxidation conditions was assessed.
# We synthesized a polypeptide (HIF-1α residues 556-574), containing a trans-4-hydroxy-S-proline residue at position 564 (19:Pro564Hyp), since the trans-4-hydroxylation is the commonest enzymatic proline oxidation (25). A polypeptide blocking assay was carried out using the 19:Pro564Hyp modified polypeptide and, as a control, the unmodified polypeptide without the trans-4-hydroxylation (19:WT). The 19:WT polypeptide was either incubated with cell extract before the binding assay or was untreated. The 19:Pro564Hyp polypeptide was added to a mixture of HIF-1α and pVHL-HA IVTTs at a concentration of 1, 0.25, 0.05 or 0.01 μM and the cell extract treated or untreated 19:WT polypeptide at a concentration of 0.5 μM. Interaction of HIF-1α with pVHL was then assayed by anti-HA immunoprecipitation. […] A pVHL capture assay was then carried out using biotinylated synthetic polypeptides. The same polypeptides, 19:Pro564Hyp and 19:WT were assessed for the ability to capture wild type or mutant (Pro86His) pVHL. […] In both cases capture was specific for wild type, as opposed to mutant, pVHL.
# • 1. G. L. Semenza, Genes Dev 14, 1983-91. (2000). • 2. N. V. Iyer, et al., Genes Dev. 12, 149-162 (1997). • 3. E. Maltepe, J. V. Schmidt, D. Baunoch, C. A. Bradfield, M. C. Simon, Nature 386, 403-407 (1997). • 4. G. L. Wang, B.-H. Jiang, E. A. Rue, G. L. Semenza, Proc. Natl. Acad. Sci. USA 92, 5510-5514 (1995). • 5. S. Salceda, J. Caro, J. Biol. Chem. 272, 22642-22647 (1997). • 6. L. E. Huang, J. Gu, M. Schau, H. F. Bunn, Proc. Natl. Acad. Sci. USA 95, 7987-7992 (1998). • 7. M. S. Wiesener, et al., Blood 92, 2260-2268 (1998). • 8. P. H. Maxwell, et al., Nature 399, 271-275 (1999). • 9. K. Iwai, et al., Proc. Natl. Acad. Sci. USA 96, 12436-12441 (1999). • 10. J. Lisztwan, G. Imbert, C. Wirbelauer, M. Gstaiger, W. Krek, Genes Dev 13, 1822-33 (1999). • 11. M. E. Cockman, et al., J Biol Chem (2000). • 12. M. Ohh, et al., Nat Cell Biol 2, 423-7. (2000). • 13. T. Kamura, et al., Proc Natl Acad Sci USA 97, 10430-5. (2000). • 14. K. Tanimoto, Y. Makino, T. Pereira, L. Poellinger, Embo J 19, 4298-309. (2000). • 15. M. A. Goldberg, S. P. Dunning, H. F. Bunn, Science 242, 1412-1415 (1988). • 16. G. L. Wang, G. L. Semenza, Blood 82, 3610-3615 (1993). • 17. G. L. Semenza, Cell 98, 281-284 (1999). • 18. Hypoxia (<0.1% oxygen) was obtained in a workstation with O2, CO2 and temperature control (Ruskinn Technologies, Leeds, UK). For hypoxic harvest, buffers were preincubated in the chamber overnight. RCC4-VHL.HA, labelling conditions and co-immunoprecipitation assays have been described previously (11); in the current study 12.5 μM MG132 was used for proteasomal inhibition. For standard harvest, the cells were removed from the chamber after hypoxic exposure, prior to cell lysis. Co-immunoprecipitation assays on all lysates were performed at 4° C. under ambient oxygen conditions. […] When programming in hypoxia, reaction mix was preincubated in the workstation for 10 minutes before addition of the DNA template. […]
# [2] = tested on: collagen prolyl-hydroxylase (CPH); settings: cited from earlier work
# [3] = tested on: HIF; experiment: Induction of HIF in tissue culture by esterified equivalents; format: cell-based; settings: In-vivo esterified equivalent
# [4] = tested on: HIF hydroxylase (HPH activity); experiment: HIF hydroxylase (HPH) inhibition, statements of the description; format: biochemical
# [5] = tested on: HIF-α prolyl-hydroxylase (HIF-PH) of cell extract; experiment: Modifying activity (HIF-PH) of cell extract on HIF substrate (Gal/HIF-1α549-582/VP16 or 19:WT), pVHL capture assay; format: biochemical, mammalian; settings: for Disruption of HIF-VHL interaction: In-vitro inhibitor; for pVHL binding after treatment of Gal-Hif549-582-VP16 with cell extract in the presence of inhibitor: SDS-PAGE and autoradiography; for effect of pretreatment of extracts on modifying activity: clotrimazole 10 μM, methyl-viologen 1 mM, NADase 20 mU/ml
# Method: The unlabelled HIF-1α substrate was immunopurified on beads, washed, and aliquots incubated under different test conditions in buffer or cell extract. After further washing, the beads were assayed for ability to interact with 35-S labelled pVHL IVTT (21) which was then visualised by fluorography.
# The capture of labelled pVHL by different HIF substrates was monitored after exposure to various test conditions.
# We went on to test a series of 2-oxoglutarate analogues which act as competitive inhibitors of this class of enzyme (29) for ability to inhibit HIF-PH as assessed by the ability of cell extracts to modify either HIF polypeptide (19:WT) or a HIF fusion protein (Gal/HIF-1α549-582/VP16) so as to promote pVHL capture. […] In one such experiment the effect of N-oxalylglycine on pVHL capture by a biotinylated HIF polypeptides as substrate was monitored. The WT:19 and 19:Pro564Hyp polypeptides described above were used as substrates. […] The effect of dimethyl-oxalyglycine on HIF-1α expression was also studied. HIF-1α immunoblot analysis of extracts of Hep3B and U2OS cells exposed to dimethyl-oxalylgylcine (0, 0.1 or 1.0 mM) for 6 hours was carried out. […]
# T1 sequence (P40337 whole entry): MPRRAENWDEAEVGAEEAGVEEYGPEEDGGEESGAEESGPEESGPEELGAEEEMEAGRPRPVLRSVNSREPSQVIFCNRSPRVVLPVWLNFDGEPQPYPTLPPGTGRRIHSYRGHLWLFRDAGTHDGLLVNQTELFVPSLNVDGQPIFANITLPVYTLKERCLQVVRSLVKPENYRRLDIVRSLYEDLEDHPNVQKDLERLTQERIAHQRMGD
compound,measurement,setting,value
"34 residue sequence encompassing amino acids 549-582: synthetic polypeptide, HIF-1α residues 549-582",blocking of HIF-1α/pVHL interaction by polypeptide after exposure to cell extract,[1]; cell extract supplemented with Fe(II),blocking activity was strikingly induced
same,blocking of HIF-1α/pVHL interaction by polypeptide not exposed to cell extract,[1]; untreated polypeptide,unable to block interaction
CC(NC(=O)C(=O)O)C(=O)O (racemic) [(RS)-N-oxaloalanine],inhibition of CPH,[2],poor inhibitor
"CCOC(=O)c1ccnc(C(=O)OCC)c1 [2, 4 diethylpyridine dicarboxylate, 2,4-diethylpyridine dicarboxylate]",Induction of HIF in tissue culture,[3],No
same,inhibition of HIF hydroxylase / HPH,[4],found not to inhibit HPH
same,inhibition of CPH,[2],known CPH inhibitor
"O=C(O)c1ccnc(C(=O)O)c1 [2, 4 pyridine dicarboxylic acid]",Disruption of HIF-VHL interaction,[5],Yes
"CCOC(=O)c1ccc(C(=O)OCC)nc1 [2, 5 diethylpyridine dicarboxylate]",Induction of HIF in tissue culture,[3],No
"CCOC(=O)c1cccc(C(=O)OCC)n1 [2, 6 diethylpyridine dicarboxylate]",Induction of HIF in tissue culture,[3],No
CC(C)[C@H](NC(=O)C(=O)O)C(=O)O [(S)-oxalovaline],inhibition of HIF hydroxylase / HPH,[4],little or no activity
COC(=O)CNC(=S)C(=O)OC [Is1],pVHL binding after treatment of Gal-Hif549-582-VP16 with cell extract in the presence of inhibitor,[5],reduced pVHL binding
O=C(O)CNC(=S)C(=O)O [Is3],pVHL binding after treatment of Gal-Hif549-582-VP16 with cell extract in the presence of inhibitor,[5],reduced pVHL binding
COCCNC(=O)c1ccncc1C(=O)NCCOC [Is8],pVHL binding after treatment of Gal-Hif549-582-VP16 with cell extract in the presence of inhibitor,[5],reduced pVHL binding
COC(=O)C(=O)NC(C)C(=O)OC [Methylmethoxalyl-D/L-alanine],Induction of HIF in tissue culture,[3],No
C[C@@H](NC(=O)C(=O)O)C(=O)O [N-oxalyl-2R-alanine],inhibition of HIF hydroxylase / HPH,[4],also an inhibitor
same,inhibition of modifying activity of cell extract on 19:WT (pVHL capture),"[5]; N-oxalylglycine 0.2-1 mM, overcome by 5 mM 2-oxoglutarate",not
CC(C)[C@H](NC(=O)C(=O)O)C(=O)O [NK80],Disruption of HIF-VHL interaction,[5],No
"C[C@H](NC(=O)C(=O)O)C(=O)O [NK81, oxalyl L-alanine]",Disruption of HIF-VHL interaction,[5],Yes
"C[C@@H](NC(=O)C(=O)O)C(=O)O [NK82, oxalyl D-alanine]",Disruption of HIF-VHL interaction,[5],No
"O=C(O)CNC(=O)C(=O)O [NK87, oxalylglycine]",Disruption of HIF-VHL interaction,[5],Yes
same,pVHL binding after treatment of Gal-Hif549-582-VP16 with cell extract in the presence of inhibitor,[5],reduced binding of pVHL
same,pVHL binding after treatment with cell extract in the presence of inhibitor and additional 2-oxoglutarate,[5]; plus additional 2-oxoglutarate,strong binding
O=C(NO)c1ccccc1 [benzohydroxamic acid],pVHL binding after treatment of Gal-Hif549-582-VP16 with cell extract in the presence of inhibitor,[5],reduced pVHL binding
"Clc1ccccc1C(c1ccccc1)(c1ccccc1)n1ccnc1 [clotrimazole, reference compound]",effect of pretreatment of extracts on modifying activity,[5],did not significantly affect activity
CCOC(=O)c1ccc(O)c(O)c1 [ethyl dihydroxybenzoate],pVHL binding after treatment of Gal-Hif549-582-VP16 with cell extract in the presence of inhibitor,[5],reduced pVHL binding
"N[C@@H](CCC(=O)N[C@@H](CS)C(=O)NCC(=O)O)C(=O)O [glutathione, gamma-glutamyl-cysteinyl-glycine]",inhibition of HIF hydroxylase / HPH,[4],inhibitors of HPH
"C[n+]1ccc(-c2cc[n+](C)cc2)cc1 [methyl-viologen, reference compound]",effect of pretreatment of extracts on modifying activity,[5],did not significantly affect activity
